Read-outs that look alike come from different tables or passages of the source.
Columns and labels:
[1] = target: menin protein (Homo sapiens (Human), UniProt O00255); experiment: biochemical; format: binding; conditions: FP competitive binding; menin protein 4 nM, FAM-MM2 probe 2 nM; read-out: Menin Binding Affinity IC50
Outline: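 Competitive fluorescence polarization assay using FAM-labelled MLL1 peptide probe FAM-MM2 (2 nM final) preincubated with menin (4 nM final) in PBS with 0.02% bovine γ-globulin, 4% DMSO and 0.01% Triton X-100. Compounds were added and incubated 30 min at room temperature. IC50 came from nonlinear regression of competition curves, with Ki also derived.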

[2] = Cell growth inhibition, CellTiter-Glo Luminescent Cell Viability Assay; format: cell-based
Protocol: Cell growth inhibitory activity of representative menin inhibitors was determined using CellTiter-Glo® Luminescent Cell Viability Assay. Cells were seeded in 384-well white opaque cell culture plates at a density of 2,000 cells/well with serially diluted compounds and incubated at 37° C. in an atmosphere of 95% air and 5% CO2 for 4 days. Cell viability was determined using the CellTiter-Glo® Luminescent Cell Viability Assay Kit (Promega, Madison, Wis.) according to the manufacture's instruction. Briefly, a volume of CellTiter-Glo® Reagent equal to the volume of cell culture medium was added to each well, and then the plates were incubated at room temperature for 10-20 minutes. The luminescent signal was measured using a Tecan Infinite M1000 multimode microplate reader (Tecan, Morrisville, N.C.). The half maximal inhibitory concentration (IC50) was calculated using the GraphPad Prism 5 software (GraphPad Software, La Jolla, Calif.).

[3] = MOLM-13, 96 h, read-out: Cell Growth Inhibition IC50 (μM) MOLM13, MOLM13 cells, 4 days, CellTiter-Glo
[4] = MV4-11, 96 h, read-out: Cell Growth Inhibition IC50 (μM) MV4, 11, MV4, 11 cells, 4 days, CellTiter-Glo

menin protein, sequence (O00255 whole entry): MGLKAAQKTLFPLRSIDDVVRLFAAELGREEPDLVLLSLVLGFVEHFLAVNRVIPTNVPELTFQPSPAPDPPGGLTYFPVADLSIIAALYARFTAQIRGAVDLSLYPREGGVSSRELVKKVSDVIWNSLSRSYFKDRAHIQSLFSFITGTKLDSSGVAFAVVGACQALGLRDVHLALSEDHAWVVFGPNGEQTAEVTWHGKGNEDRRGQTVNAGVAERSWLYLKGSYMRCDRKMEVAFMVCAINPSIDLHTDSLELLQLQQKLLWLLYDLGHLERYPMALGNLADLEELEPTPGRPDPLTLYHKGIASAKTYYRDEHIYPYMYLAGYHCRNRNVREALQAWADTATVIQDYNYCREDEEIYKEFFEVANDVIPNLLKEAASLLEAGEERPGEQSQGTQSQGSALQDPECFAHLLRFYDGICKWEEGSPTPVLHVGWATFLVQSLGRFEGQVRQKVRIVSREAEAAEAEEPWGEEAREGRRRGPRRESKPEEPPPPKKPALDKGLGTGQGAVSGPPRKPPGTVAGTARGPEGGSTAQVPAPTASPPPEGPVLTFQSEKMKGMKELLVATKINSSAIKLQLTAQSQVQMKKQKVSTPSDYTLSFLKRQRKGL

| Compound | IC50 [1] | IC50 [2, 3] | IC50 [2, 4] | further results |
| --- | --- | --- | --- | --- |
| CNC(=O)O[C@H]1CCC[C@@H]1[C@](C#N)(c1ccccc1)C1CCN(CC2CN(c3ccc(S(=O)(=O)c4ccncc4)cc3)C2)CC1 (mixture of isomers) [compound 353, rac-(1S,2R)-2-((S)-cyano(phenyl)(1-((1-(4-(pyridin-4-ylsulfonyl)phenyl)azetidin-3-yl)methyl)piperidin-4-yl)methyl)cyclopentyl methylcarbamate] | 6 nM | 0.25 µM | 0.075 µM |  |
| CNC(=O)O[C@@H]1CCC[C@H]1[C@@](C#N)(c1ccccc1)C1CCN(CC2CN(c3ccc(S(=O)(=O)c4ccncc4)cc3)C2)CC1 (mixture of isomers) [compound 354, rac-(1R,2S)-2-((R)-cyano(phenyl)(1-((1-(4-(pyridin-4-ylsulfonyl)phenyl)azetidin-3-yl)methyl)piperidin-4-yl)methyl)cyclopentyl methylcarbamate] | 62 nM | 4.7 µM | 1.3 µM |  |
| CCN1Cc2ccccc2C(C2CCN(CC3CN(c4ccc(S(=O)(=O)c5cnn(C)c5)cc4)C3)CC2)([C@H]2CCC[C@@H]2NC(=O)NC)C1 (mixture of isomers) [Cpd. No. 291, rac-1-((1S,2R)-2-(2-ethyl-4-(1-((1-(4-((1-methyl-1H-pyrazol-4-yl)sulfonyl)phenyl)azetidin-3-yl)methyl)piperidin-4-yl)-1,2,3,4-tetrahydroisoquinolin-4-yl)cyclopentyl)-3-methylurea] | 7 nM | 0.71 µM | 0.2 µM |  |
| CCN1Cc2ccccc2C(C2CCN(CC3CN(c4ccc(S(=O)(=O)c5cnn(C)c5)cc4)C3)CC2)([C@H]2CCC[C@@H]2NC(C)=O)C1 (mixture of isomers) [Cpd. No. 292, rac-N-((1S,2R)-2-(2-ethyl-4-(1-((1-(4-((1-methyl-1H-pyrazol-4-yl)sulfonyl)phenyl)azetidin-3-yl)methyl)piperidin-4-yl)-1,2,3,4-tetrahydroisoquinolin-4-yl)cyclopentyl)acetamide] | 11 nM | 1.34 µM | 0.13 µM |  |
| COC(=O)N[C@H]1CCC[C@@H]1C(C#N)(c1ccccc1)C1CCN(CC2CN(c3ccc(S(=O)(=O)c4ccncc4)cc3)C2)CC1 (mixture of isomers) [Cpd. No. 345, methyl (rac-(1S,2R)-2-(cyano(phenyl)(1-((1-(4-(pyridin-4-ylsulfonyl)phenyl)azetidin-3-yl)methyl)piperidin-4-yl)methyl)cyclopentyl)carbamate] | 11 nM | 0.71 µM | 0.54 µM |  |
| COC(=O)N[C@H]1CCC[C@@H]1C(C#N)(c1ccccc1)C1CCN(CC2CN(c3ccc(S(=O)(=O)c4cnn(C)c4)cc3)C2)CC1 (mixture of isomers) [Cpd. No. 349, methyl (rac-(1S,2R)-2-(cyano(1-((1-(4-((1-methyl-1H-pyrazol-4-yl)sulfonyl)phenyl)azetidin-3-yl)methyl)piperidin-4-yl)(phenyl)methyl)cyclopentyl)carbamate] | 15 nM | 0.87 µM | 0.44 µM |  |
| CC(=O)O[C@H]1CCC[C@@H]1C(C#N)(c1ccccc1)C1CCN(CC2CN(c3ccc(S(=O)(=O)c4ccncc4)cc3)C2)CC1 (mixture of isomers) [compound 185, rac-(1S,2R)-2-(cyano(phenyl)(1-((1-(4-(pyridin-4-ylsulfonyl)phenyl)azetidin-3-yl)methyl)piperidin-4-yl)methyl)cyclopentyl acetate] | 7 nM | 0.783 ± 0.474 µM | 0.624 ± 0.165 µM |  |
| CC(=O)O[C@H]1CCC[C@@H]1C(C#N)(c1ccccc1)C1CCN(CC2CN(c3ccc(S(=O)(=O)C4CC4)cc3)C2)CC1 (mixture of isomers) [compound 187, rac-(1S,2R)-2-(cyano(1-((1-(4-(cyclopropylsulfonyl)phenyl)azetidin-3-yl)methyl)piperidin-4-yl)(phenyl)methyl)cyclopentyl acetate] | 18 nM | 1.9 ± 0.7 µM | 1.2 ± 0.3 µM |  |
| COC(=O)N[C@H]1CCC[C@@H]1C(C#N)(c1ccccc1)C1CCN(CC2CN(c3ccc(S(=O)(=O)C(F)(F)F)cc3)C2)CC1 (mixture of isomers) [compound 393, methyl rac-((1S,2R)-2-(cyano(phenyl)(1-((1-(4-((trifluoromethyl)sulfonyl)phenyl)azetidin-3-yl)methyl)piperidin-4-yl)methyl)cyclopentyl) carbamate] |  | 0.88 µM | 0.25 µM |  |
| COC(=O)N[C@H]1CCC[C@@H]1C(C#N)(c1ccccc1)C1CCN(CC2CN(c3ccc(C#N)cc3)C2)CC1 (mixture of isomers) [compound 400, methyl rac-((1S,2R)-2-(cyano(1-((1-(4-cyanophenyl)azetidin-3-yl)methyl)piperidin-4-yl)(phenyl)methyl)cyclopentyl) carbamate] |  |  |  | IC50 ([2]; MOLM-13, 96 h, MOLM13 cells, 4 days, CellTiter-Glo, read-out: Cell Growth Inhibition IC50 (μM) MOLM13): 6.11 µM; IC50 ([2]; MV4-11, 96 h, MV4, 11 cells, 4 days, CellTiter-Glo, read-out: Cell Growth Inhibition IC50 (μM) MV4, 11): 0.83 µM |
| COC(=O)N[C@H]1CCC[C@@H]1[C@](C#N)(c1ccccc1)C1CCN(CC2CN(c3ccc(S(=O)(=O)C(F)(F)F)cc3)C2)CC1 [Cpd. No. 403, methyl ((1S,2R)-2-((S)-cyano(phenyl)(1-((1-(4-((trifluoromethyl)sulfonyl)phenyl)azetidin-3-yl)methyl)piperidin-4-yl)methyl)cyclopentyl)carbamate] |  | 1.3 µM | 0.19 µM |  |
| N#Cc1ccc(OCCCN2CCC(C3(C4CCCC4)NCCc4ccccc43)CC2)cc1 (stereo not shown) [compound 27, 4-(3-(4-(1-cyclopentyl-1,2,3,4-tetrahydroisoquinolin-1-yl)piperidin-1-yl)propoxy)benzonitrile] |  |  |  | IC50 ([2]; MOLM-13, 96 h, read-out: Cell Growth Inhibition IC50 (μM) MOLM13): 3.6 µM; IC50 ([2]; MV4-11, 96 h, read-out: Cell Growth Inhibition IC50 (μM) MV4, 11): 0.9 µM |
| N#Cc1ccc(OCCCN2CCC(C3NCCc4ccccc43)CC2)cc1 (stereo not shown) [compound 305, 4-(3-(4-(1,2,3,4-tetrahydroisoquinolin-1-yl)piperidin-1-yl)propoxy)benzonitrile] | 42100 nM |  |  |  |
| N#Cc1ccc(OCCCN2CCC(C(C#N)(CC(=O)N3CCCC3)c3ccccc3)CC2)cc1 (stereo not shown) [compound 306, 4-(3-(4-(1-cyano-3-oxo-1-phenyl-3-(pyrrolidin-1-yl)propyl)piperidin-1-yl)propoxy)benzonitrile] | 40000 nM |  |  |  |
| CC(=O)N1CCCC(C(C#N)(c2ccccc2)C2CCN(CCCOc3ccc(C#N)cc3)CC2)C1 (stereo not shown) [compound 307, 4-(3-(4-((1-acetylpiperidin-3-yl)(cyano)(phenyl)methyl)piperidin-1-yl)propoxy)benzontrile] | 30600 nM |  |  |  |
| COCC(C1CC1)C(C#N)(c1ccccc1)C1CCN(CCCOc2ccc(C#N)cc2)CC1 (stereo not shown) [compound 329] | 19000 nM |  |  |  |
| CC(=O)N1CCC[C@H]1C(C#N)(c1ccccc1)C1CCN(CCCOc2ccc(C#N)cc2)CC1 (stereo partly drawn) [compound 330, 4-(3-(4-(((S)-1-acetylpyrrolidin-2-yl)(cyano)(phenyl)methyl)piperidin-1-yl)propoxy)benzonitrile] | 111000 nM |  |  |  |
| CC(=O)N1CCC[C@@H]1C(C#N)(c1ccccc1)C1CCN(CCCOc2ccc(C#N)cc2)CC1 (stereo partly drawn) [compound 331, 4-(3-(4-(((R)-1-acetylpyrrolidin-2-yl)(cyano)(phenyl)methyl)piperidin-1-yl)propoxy)benzonitrile] | 23300 nM |  |  |  |
| CCC1CCCC1C(C#N)(c1ccccc1)C1CCN(CC2CN(c3ccc(S(=O)(=O)c4ccncc4)cc3)C2)CC1 (stereo not shown) [compound 338, 2-(2-ethylcyclopentyl)-2-phenyl-2-(1-((1-(4-(pyridin-4-ylsulfonyl)phenyl)azetidin-3-yl)methyl)piperidin-4-yl)acetonitrile] | 10200 nM |  |  |  |
| N#CC(Cc1ccncc1)(c1ccccc1)C1CCN(CC2CN(c3ccc(S(=O)(=O)c4ccncc4)cc3)C2)CC1 (stereo not shown) [compound 343, 2-phenyl-3-(pyridin-4-yl)-2-(1-((1-(4-(pyridin-4-ylsulfonyl)phenyl)azetidin-3-yl)methyl)piperidin-4-yl)propanenitrile] | 8800 nM |  |  |  |
| N#Cc1ccc(OCCCN2CCC(C(C#N)(Cc3ccncc3)c3ccccc3)CC2)cc1 (stereo not shown) [compound 344, 4-(3-(4-(1-cyano-1-phenyl-2-(pyridin-4-yl)ethyl)piperidin-1-yl)propoxy)benzonitrile] | 180000 nM |  |  |  |
| O=S(=O)(c1ccccc1)c1ccc(N2CC(CN3CCC(C(CN4CCCC4)(C4=CCCC4)c4ccccc4)CC3)C2)cc1 (stereo not shown) [compound 355, 4-(1-(cyclopent-1-en-1-yl)-1-phenyl-2-(pyrrolidin-1-yl)ethyl)-1-((1-(4-(phenylsulfonyl)phenyl)azetidin-3-yl)methyl)piperidine] | 45 nM |  |  |  |
| Cn1cc(S(=O)(=O)c2ccc(N3CC(CN4CCC(C(CN5CCCC5)(C5=CCCC5)c5ccccc5)CC4)C3)cc2)cn1 (stereo not shown) [compound 357, 4-(1-(cyclopent-1-en-1-yl)-1-phenyl-2-(pyrrolidin-1-yl)ethyl)-1-((1-(4-((1-methyl-1H-pyrazol-4-yl)sulfonyl)phenyl)azetidin-3-yl)methyl)piperidine] | 32 nM |  |  |  |

— patent publication US10899738B2 (THE REGENTS OF THE UNIVERSITY OF MICHIGAN, priority 2016, dated 2021)
